Literature values as cited in patent US20250170078A1, “STABLE PHARMACEUTICAL COMPOSITIONS OF HYDROXYUREA” (Slayback Pharma LLC., priority 2022, published 2025).

Columns and labels:
[1] = oral
[2] = not given; remark: listed apart in the source
[3] = on its own
[4] = patients, dose escalation based on blood counts

In the case of `NC(=O)NO` [Hydroxyurea], the solubility in water is listed as “freely soluble”, the “absorption from the gastrointestinal tract” value [1] is listed as “almost completely absorbed” and the “stability in aqueous solutions” value [2] is listed as “poor stability”. For the same molecule, the antimicrobial activity [3] was “high level of antimicrobial activity” and the maximum tolerable dose [4] was 35 mg/kg/day.
